Source: patent US8354414B2, “Substituted bicyclic pyrimidines” (Cephalon, Inc, priority 2006, dated 2013)
Like-named read-outs stand apart in the source and are kept apart here.

How the values were obtained:
[1] = target: T1, CDK5/GST-p25 (Homo sapiens, UniProt Q00535); test: Inhibition of CDK5/GST-p25 kinase activity (ELISA with time-resolved fluorescence readout); assay type: biochemical
T1 construct: The final construct, encoding for full-length human CDK5; made in house; host or cells: Sf21 insect cells (baculovirus co-infection)
Method in brief: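 The substrate, GST-Rb(773-928), was immobilised on plates and phosphorylated for 20 min at 37 °C by 2 ng/ml CDK5/GST-p25 in HEPES pH 7.2 with 10 µM ATP and 10 mM MgCl2. Both proteins were human and co-expressed in insect cells. Ser-780 phosphorylation was read by europium time-resolved fluorescence and converted to IC50.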

[2] = target: T2, His6-GSK-3β (Homo sapiens, UniProt P49841); test: Inhibition of His6-GSK-3β kinase activity (ELISA-based format, time-resolved fluorescence readout); assay type: biochemical; conditions: read-out: GSK3β IC50
T2 construct: made in house; host or cells: Sf21 insect cells (baculovirus)
Method in brief: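 Plate-bound recombinant GST-Rb substrate was phosphorylated for 30 min at 37° C by baculovirus-expressed His6-GSK-3β (200 ng/ml) at 20 μM ATP, 10 mM MgCl2, 2.5% DMSO. Europium time-resolved fluorescence of anti-phospho-Ser780 Rb signal gave inhibition, fitted to IC50.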

T2 sequence (P49841 2-419): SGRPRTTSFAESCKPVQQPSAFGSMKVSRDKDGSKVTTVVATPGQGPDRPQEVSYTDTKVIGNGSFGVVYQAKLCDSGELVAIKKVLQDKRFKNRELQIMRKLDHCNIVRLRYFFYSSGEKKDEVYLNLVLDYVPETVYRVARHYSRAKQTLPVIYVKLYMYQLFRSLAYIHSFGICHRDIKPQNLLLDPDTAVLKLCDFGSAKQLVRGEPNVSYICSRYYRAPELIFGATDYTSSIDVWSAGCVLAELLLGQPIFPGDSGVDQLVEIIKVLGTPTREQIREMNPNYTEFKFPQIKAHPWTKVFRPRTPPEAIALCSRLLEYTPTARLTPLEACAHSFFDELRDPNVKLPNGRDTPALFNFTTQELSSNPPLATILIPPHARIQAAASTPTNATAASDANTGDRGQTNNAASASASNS
T1 sequence (Q00535 whole entry): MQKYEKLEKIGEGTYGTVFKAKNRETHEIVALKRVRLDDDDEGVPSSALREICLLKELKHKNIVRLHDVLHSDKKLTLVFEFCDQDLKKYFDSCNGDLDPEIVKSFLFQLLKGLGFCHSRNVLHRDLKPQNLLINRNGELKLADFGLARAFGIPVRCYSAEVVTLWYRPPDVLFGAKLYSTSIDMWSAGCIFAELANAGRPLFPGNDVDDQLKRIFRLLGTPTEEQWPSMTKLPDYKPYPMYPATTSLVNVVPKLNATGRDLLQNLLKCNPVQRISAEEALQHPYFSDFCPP
T1 sequence (Q15078 108-307 partner limits assumed): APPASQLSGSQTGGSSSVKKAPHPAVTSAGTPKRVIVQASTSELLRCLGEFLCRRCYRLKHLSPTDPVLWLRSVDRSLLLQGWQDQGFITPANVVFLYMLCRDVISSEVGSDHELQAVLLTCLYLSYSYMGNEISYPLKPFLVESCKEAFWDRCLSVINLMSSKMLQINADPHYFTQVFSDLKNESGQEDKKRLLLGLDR

Molecule	IC50 ([1]; class symbols) [nM]	IC50 ([2]; class symbols) [nM]	CDK5 % @10 μM ([1]; @10 μM) [% @10 μM]	IC50 ([1]; numeric bounds) [nM]	IC50 ([2]; numeric bounds) [nM]
N#Cc1ccc2c(c1)C(c1nc(NCc3ccc(Cl)nc3)nc3nn(C4CCCC4)cc13)C(=O)N2 (stereo not shown) [Example 171, 3-{6-[(6-Chloro-pyridin-3-ylmethyl)-amino]-2-cyclopentyl-2H-pyrazolo[3,4-d]pyrimidin-4-yl}-2-oxo-2,3-dihydro-1H-indole-5-carbonitrile]	< 300	< 300	–	–	–
O=C1Nc2ccc(Br)cc2C1c1nc(NCCc2cccnc2)nc2nn(C3CCCC3)cc12 (stereo not shown) [Example 181, 5-Bromo-3-[2-cyclopentyl-6-(2-pyridin-3-yl-ethylamino)-2H-pyrazolo [3,4-d]pyrimidin-4-yl]-1,3-dihydro-1H-indol-2-one]	–	< 300	70	–	–
O=C1Nc2ccc(Br)cc2C1c1nc(NCc2ccccn2)nc2nn(C3CCCC3)cc12 (stereo not shown) [Example 179, 5-Bromo-3-{2-cyclopentyl-6-[(pyridin-2-ylmethyl)-amino]-2H-pyrazolo [3,4-d]pyrimidin-4-yl}-1,3-dihydro-1H-indol-2-one]	300 to 3000	< 300	–	–	–
N#Cc1ccc2c(c1)C(c1nc(NCCc3ccccc3)nc3nn(C4CCCC4)cc13)C(=O)N2 (stereo not shown) [Example 134, 3-(2-cyclopentyl-6-2-phenethylamino-2H-pyrazolo [3,4-d]pyrimidin-4-yl)-2-oxo-2,3-dihydro-1H-indole-5-carbonitrile]	–	< 300	–	> 3000	–
CN(C)CCOc1nc(C2C(=O)Nc3ccc(C#N)cc32)c2cn(C3CCCC3)nc2n1 (stereo not shown) [Example 122, 3-[2-cyclopentyl-6-(2-dimethylamino-ethoxy)-2H-pyrazolo[3,4-d]pyrimidin-4-yl]-2-oxo-2,3-dihydro-1H-indole-5-carbonitrile]	> 10000	< 300	–	–	–
N#Cc1ccc2c(c1)C(c1nc(N3CCN(CCc4ccccn4)CC3)nc3nn(C4CCCC4)cc13)C(=O)N2 (stereo not shown) [Example 129, 3-{2-cyclopentyl-6-[4-(2-pyridin-2-yl-ethyl)-piperazin-1-yl]-2H-pyrazolo [3,4-d]pyrimidin-4-yl}-2-oxo-2,3-dihydro-1H-indole-5-carbonitrile]	> 10000	< 300	–	–	–
5-Chloro-3-[2-cyclopentyl-6-(2-diethylamino-ethoxy)-2H-pyrazolo [3,4-d]pyrimidin-4-yl]-1,3-dihydro-indol-2-one [Example 141]	> 10000	< 300	–	–	–
N#Cc1ccc2c(c1)C(c1nc(N3CCCCC3)nc3nn(C4CCCC4)cc13)C(=O)N2 (stereo not shown) [Example 131, 3-(2-cyclopentyl-6-piperidin-1-yl-2H-pyrazolo[3,4-d]pyrimidin-4-yl)-2-oxo-2,3-dihydro-1H-indole-5-carbonitrile]	> 10000	< 300	–	–	–
N#Cc1ccc2c(c1)C(c1nc(NCCc3ccncc3)nc3nn(C4CCCC4)cc13)C(=O)N2 (stereo not shown) [Example 126, 3-(2-cyclopentyl-6-(2-pyridin-4-yl-ethylamino)-2H-pyrazolo [3,4-d]pyrimidin-4-yl)-2-oxo-2,3-dihydro-1H-indole-5-carbonitrile]	< 300	< 300	–	–	–
COCCCNc1nc(C2C(=O)Nc3ccc(C#N)cc32)c2cn(C3CCCC3)nc2n1 (stereo not shown) [Example 175, 3-[2-Cyclopentyl-6-(3-methoxy-propylamino)-2H-pyrazolo [3,4-d]pyrimidin-4-yl]-2-oxo-2,3-dihydro-1H-indole-5-carbonitrile]	< 300	< 300	–	–	–
N#Cc1ccc2c(c1)C(c1nc(NCc3cccnc3)nc3nn(C4CCCC4)cc13)C(=O)N2 (stereo not shown) [Example 133, 3-{2-cyclopentyl-6-[(pyridin-3-ylmethyl)amino]-2H-pyrazolo[3,4-d]pyrimidin-4-yl}-2-oxo-2,3-dihydro-1H-indole-5-carbonitrile]	< 300	< 300	–	–	–
CCOCCn1cc2c(C3C(=O)Nc4ccc(Cl)cc43)nc(NCCc3cccnc3)nc2n1 (stereo not shown) [Example 212, 5-Chloro-3-[2-(2-ethoxy-ethyl)-6-(2-pyridin-3-yl-ethylamino)-2H-pyrazolo [3,4-d]pyrimidin-4-yl]-1,3-dihydro-indol-2-one]	< 300	< 300	–	–	–
O=C1Nc2ccc(Br)cc2C1c1nc(Cl)nc2nn(C3CCCC3)cc12 (stereo not shown) [Example 182, 5-Bromo-3-(6-chloro-2-cyclopentyl-2-H-pyrazolo[3,4-d]pyrimidin-4-yl)-1,3-dihydro-indol-2-one]	> 10000	–	–	–	> 3000
N#Cc1ccc2c(c1)C(c1nc(N3CCN(CCN4CCCC4)CC3)nc3nn(C4CCCC4)cc13)C(=O)N2 (stereo not shown) [Example 127, 3-{2-cyclopentyl-6-[4-(2-pyrrolidin-1-yl-ethyl)-piperazin-1-yl]-2H-pyrazolo[3,4-d]pyrimidin-4-yl}-2-oxo-2,3-dihydro-1H-indole-5-carbonitrile]	> 10000	< 300	–	–	–
CNCCCn1cc2c(C3C(=O)Nc4ccc(Br)cc43)ncnc2n1 (stereo not shown) [Example 90, 3-[2-(3-methylamino-propyl)-2H-pyrazolo[3,4-d]pyrimidin-4-yl]-5-bromo-1,3-dihydro-indol-2-one]	< 300	300 to 3000	–	–	–
N#Cc1ccc2c(c1)C(c1nc(N3CCNCC3)nc3c1CCC3)C(=O)N2 (stereo not shown) [Example 354, 2-Oxo-3-(2-piperazin-1-yl-6,7-dihydro-5H-cyclopentapyrimidin-4-yl)-2,3-dihydro-1H-indole-5-carbonitrile]	< 300	300 to 3000	–	–	–

Continued, values first:

IC50 ([1]; class symbols) [nM]	IC50 ([2]; class symbols) [nM]	CDK5 % @10 μM ([1]; @10 μM) [% @10 μM]	IC50 ([1]; numeric bounds) [nM]	IC50 ([2]; numeric bounds) [nM]	Molecule
> 10000	> 10000	–	–	–	O=C1Nc2ccc(Cl)cc2C1c1nc(NCc2ccccn2)nc2c1CCC2 (stereo not shown) [Example 330, 5-Chloro-3-{2-[(pyridin-2-ylmethyl)-amino]-6,7-dihydro-5H-cyclopentapyrimidin-4-yl}-1,3-dihydro-indol-2-one]
< 300	< 300	–	–	–	COCCn1cc2c(C3C(=O)Nc4ccc(Br)cc43)nc(NCCC3CCCNC3)nc2n1 (stereo not shown) [Example 228, 5-Bromo-3-[2-(2-methoxy-ethyl)-6-(2-piperidin-3-yl-ethylamino)-2H-pyrazolo[3,4-d]pyrimidin-4-yl]-1,3-dihydro-indol-2-one]
< 300	< 300	–	–	–	COCCn1cc2c(C3C(=O)Nc4ccc(Br)cc43)nc(NCCC3CCNCC3)nc2n1 (stereo not shown) [Example 227, 5-Bromo-3-[2-(2-methoxy-ethyl)-6-(2-piperidin-4-yl-ethylamino)-2H-pyrazolo[3,4-d]pyrimidin-4-yl]-1,3-dihydro-indol-2-one]
< 300	300 to 3000	–	–	–	N#Cc1ccc2c(c1)C(c1nc(NCc3ccccn3)nc3c1CCC3)C(=O)N2 (stereo not shown) [Example 349, 2-Oxo-3-{2-[(pyridin-2-ylmethyl)-amino]-6,7-dihydro-5H-cyclopentapyrimidin-4-yl}-2,3-dihydro-1H-indole-5-carbonitrile]
> 10000	> 10000	–	–	–	N#Cc1ccc2c(c1)C(c1nc(Cl)nc3c1CCC3)C(=O)N2 (stereo not shown) [Example 317, 3-(2-Chloro-6,7-dihydro-5H-cyclopentapyrimidin-4-yl)-2-oxo-2,3-dihydro-1H-indole-5-carbonitrile]
< 300	300 to 3000	–	–	–	CNCCCNc1nc(C2C(=O)Nc3ccc(Br)cc32)c2cn(C)nc2n1 (stereo not shown) [Example 306, 5-Bromo-3-[2-methyl-6-(3-methylamino-propylamino)-2H-pyrazolo [3,4-d]pyrimidin-4-yl]-1,3-dihydro-indol-2-one]
–	300 to 3000	–	> 3000	–	N#Cc1ccc2c(c1)C(c1nc(Nc3cccnc3)nc3c1CCC3)C(=O)N2 (stereo not shown) [Example 350, 2-Oxo-3-[2-(pyridin-3-ylamino)-6,7-dihydro-5H-cyclopentapyrimidin-4-yl]-2,3-dihydro-1H-indole-5-carbonitrile]
300 to 3000	300 to 3000	–	–	–	N#Cc1ccc2c(c1)C(c1nc(NCCc3ccccn3)nc3c1CCC3)C(=O)N2 (stereo not shown) [Example 346, 2-Oxo-3-[2-(2-pyridin-2-yl-ethylamino)-6,7-dihydro-5H-cyclopentapyrimidin-4-yl]-2,3-dihydro-1H-indole-5-carbonitrile]
–	300 to 3000	–	> 3000	–	O=C1Nc2ccc(Br)cc2C1c1nc(NCCN2CCOCC2)nc2c1CCC2 (stereo not shown) [Example 332, 5-Bromo-3-[2-(2-morpholin-4-yl-ethylamino)-6,7-dihydro-5H-cyclopentapyrimidin-4-yl]-1,3-dihydro-indol-2-one]
300 to 3000	300 to 3000	–	–	–	CCOCCn1cc2c(C3C(=O)Nc4ccc(Cl)cc43)nc(NCCCNC)nc2n1 (stereo not shown) [Example 215, 5-Chloro-3-[2-(2-ethoxy-ethyl)-6-(3-methylamino-propylamino)-2H-pyrazolo [3,4-d]pyrimidin-4-yl]-1,3-dihydro-indol-2-one]
< 300	< 300	–	–	–	C=CCNc1nc(C2C(=O)Nc3ccc(Br)cc32)c2cn(C)nc2n1 (stereo not shown) [Example 301, 3-(6-Allylamino-2-methyl-2H-pyrazolo[3,4-d]pyrimidin-4-yl)-5-bromo-1,3-dihydro-indol-2-one]
< 300	< 300	–	–	–	CCCn1cc2c(C3C(=O)Nc4ccc(Br)cc43)nc(NC[C@H](O)CO)nc2n1 (stereo partly drawn) [Example 364, 5-Bromo-3-[6-((S)-2,3-dihydroxy-propylamino)-2-propyl-2H-pyrazolo [3,4-d]pyrimidin-4-yl]-1,3-dihydro-indol-2-one]
–	–	–	> 3000	> 3000	O=C1Nc2ccc(F)cc2C1c1nc(NCc2ccncc2)nc2c1CCC2 (stereo not shown) [Example 320, 5-Fluoro-3-{2-[(pyridin-4-ylmethyl)-amino]-6,7-dihydro-5H-cyclopentapyrimidin-4-yl}-1,3-dihydro-indol-2-one]
